Assay results reported in paper PMC3510438, “The transmembrane tyrosines Y56, Y91 and Y167 play important roles in determining the affinity and transport rate of the rabbit proton-coupled peptide transporter PepT1” (The International Journal of Biochemistry & Cell Biology, 2009).
Residue numbers refer to the chain shown, from its start. Where a SMILES comes first, the peptide text is derived from it.

Columns and labels:
Y345F-rPepT1 = target: T1, Y345F-rPepT1 (Oryctolagus cuniculus, UniProt P36836, Y345F); test: Competition of [3H]-D-Phe-L-Gln uptake into Xenopus oocytes, Ki; type: cell-based, rabbit; conditions: against 0.4 μM [3H]-D-Phe-L-Gln uptake
T1 construct: expressed in transfected cells; host or cells: Xenopus laevis oocytes injected with cRNA
T1 sequence (P36836 1-707 Y345F): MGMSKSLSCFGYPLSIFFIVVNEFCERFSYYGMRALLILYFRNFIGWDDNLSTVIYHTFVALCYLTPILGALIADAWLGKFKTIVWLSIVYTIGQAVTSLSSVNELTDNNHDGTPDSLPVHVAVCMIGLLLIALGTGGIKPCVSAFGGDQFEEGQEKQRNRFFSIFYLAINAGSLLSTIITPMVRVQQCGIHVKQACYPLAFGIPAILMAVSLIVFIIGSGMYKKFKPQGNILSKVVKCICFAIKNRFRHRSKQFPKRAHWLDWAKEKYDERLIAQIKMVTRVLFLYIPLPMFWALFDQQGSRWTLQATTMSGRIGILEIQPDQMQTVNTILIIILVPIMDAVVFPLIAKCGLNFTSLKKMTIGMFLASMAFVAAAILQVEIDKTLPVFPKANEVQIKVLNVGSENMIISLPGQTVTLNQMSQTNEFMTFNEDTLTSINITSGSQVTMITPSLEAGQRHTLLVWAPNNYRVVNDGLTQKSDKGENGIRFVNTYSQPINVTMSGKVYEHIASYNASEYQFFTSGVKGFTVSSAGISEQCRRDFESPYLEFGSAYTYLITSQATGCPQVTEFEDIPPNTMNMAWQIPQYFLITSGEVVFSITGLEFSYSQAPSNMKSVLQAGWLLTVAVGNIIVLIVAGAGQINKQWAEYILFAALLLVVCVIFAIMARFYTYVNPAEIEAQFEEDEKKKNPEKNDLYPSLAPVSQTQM
Protocol: (§1) rPepT1 constructs were linearised with XbaI (New England Biolabs, UK) and cRNA generated by in vitro transcription (T7 mMessage mMachine, Ambion, Cambridgeshire, UK). Xenopus laevis oocytes were obtained under MS222 anaesthesia (0.2%, w/v) in accordance with the UK Animals (Scientific Procedures) Act, 1986, and maintained at 18 °C in modified Barth's medium (88 mM NaCl, 1 mM KCl, 0.82 mM MgSO4, 2.4 mM NaHCO3, 0.42 mM CaCl2, 10 mM Hepes, 5 mM sodium pyruvate, 50 μg ml^−1 gentamicin (Fluka, Poole, UK), adjusted to pH 7.6 with 1 M NaOH). Transport measurements were performed at least 72 h after micro-injection of oocytes with 27nl cRNA (1 μg/μl), with medium changed daily.
(§2) Uptake of [^3H]-D-Phe-L-Gln (17.4 Ci/mmole, custom synthesised, Cambridge Research Biochemicals, Stockton-on-Tees, UK) was performed as previously described ([Meredith, 2004]). Briefly, 5 oocytes were incubated in 100 μl of uptake medium (95 mM NaCl, 2 mM KCl, 1 mM CaCl2, 0.42 mM MgCl2, 10 mM Tris/Hepes pH 7.4 or Tris/Mes pH 5.5) with tracer (0.4 μM) [^3H]-D-Phe-L-Gln. After incubation, the oocytes were washed sequentially five times in 1 ml of ice-cold 120 mM NaCl solution, lysed individually with 100 μl 2% (w/v) SDS and liquid scintillation counted. As a control non-injected oocytes were also incubated in uptake medium with D-Phe-L-Gln as above.
(§3) The affinity of wild-type and mutant rPepT1 transporters were assessed by competition studies with 0.4 μM [^3H]-D-Phe-L-Gln and Gly-L-Gln present in the uptake medium in concentrations from 0 to 2 mM using the protocol above, and the Ki calculated using the method of [Deves and Boyd (1989)].

Y12F-rPepT1 = target: T2, Y12F-rPepT1 (Oryctolagus cuniculus, UniProt P36836, Y12F); test: as above; type: cell-based, rabbit; conditions: against 0.4 μM [3H]-D-Phe-L-Gln uptake
T2 construct: expressed in transfected cells; host or cells: Xenopus laevis oocytes injected with cRNA
T2 sequence (P36836 1-707 Y12F): T1 sequence (P36836 1-707 Y345F) with Y12F, F345Y
Protocol: as §1, §2, §3

Ki (Y345F-rPepT1; pHout 5.5): 320 ± 70 µM | Ki (Y345F-rPepT1; pHout 7.4): 180 ± 50 µM | Ki (Y12F-rPepT1; pHout 5.5): 220 ± 20 µM | Ki (Y12F-rPepT1; pHout 7.4): 90 ± 20 µM
SMILES: NCC(=O)N[C@@H](CCC(N)=O)C(=O)O [Gly-L-Gln] (H-Gly-Gln-OH)
